# Test results reported in patent publication US20070191402A1, “Method of searching substrate having antidiabetic activity” (KYOWA HAKKO KOGYO CO., LTD., priority 2002, published 2007).
# Assays:
# [1] = tested on: MIN6 cell; experiment: Insulin secretion test using MIN6 cell; type: cell-based, murine; details: MIN6 cell; glucose 14.5 mmol/l or 8.4 mmol/l
# Description: Culturing MIN6 cell and testing insulin secretion using MIN6 cell were carried out according to the method described in Diabetorogia, 36, 1139-1145 (1993).
# In other words, the influence of a compound on the insulin secretion activity in the presence of 14.5 mmol/l glucose was assessed by assaying the amount of insulin in the cell culture supernatant collected as follows.
# The MIN6 cell cultured in a 24-well plate was washed twice with 1 ml of buffer A [119 mmol/l NaCl, 4.74 mmol/l KCl, 2.54 mmol/l CaCl2, 1.19 mmol/l MgSO4, 1.19 mmol/l KH2PO4, 10 mmol/l 2-[4-(2-hydroxylethyl)-1-piperadinyl]ethanesulfonic acid, 0.1% BSA, pH 7.3] containing 2 mmol/l glucose. Subsequently, the resulting cell was incubated in 1 ml of the buffer A containing 2 mmol/l glucose at 37° C. for 45 minutes. The culture supernatant was exchanged with the buffer A (1 ml) containing test compounds of various concentrations and 8.4 mmol/l glucose and incubated at 37° C. for 45 minutes to collect the culture supernatant.
# Antibody-reactive insulin secreted in the culture supernatant was assayed by radioimmunoassay [Methods in Investigative and Diagnostic Endocrinology, Vol. 2A, 2B, North-Holland Publishing Co., Amsterdam (1973)] after the culture supernatant was diluted with phosphate buffer containing 1% BSA, 0.1% Tween 20, 0.12% EDTA 2Na, and 0.1% sodium azide. A standard curve was prepared by using human insulin as the standard substance, and individual insulin values were calculated on the basis of the curve.
# [2] = tested on: pancreatic β cell (MIN6 cell); experiment: Inhibition of binding of [3H]-labeled Compound 16 to pancreatic β cell; set-up: species or system murine; details: test compound 1 μmol/l; 10 nmol/l [3H]-labeled Compound 16; MIN6 cell, 4° C.
# Description: MIN6 cell cultured to almost confluence in a 24-well plate for cell culture (manufactured by Corning) was washed twice with KRH buffer (119 mmol/l NaCl, 4.74 mmol/KCl, 2.54 mmol/l calcium chloride (CaCl2), 1.19 mmol/l magnesium sulfate (MgSO4), 1.19 mmol/l potassium dihydrogen phosphate (KH2PO4), 10 mmol/l HEPES, 2 mmol/l glucose, 0.1 w/v % bovine serum albumin (BSA), pH 7.3). Subsequently, the KRH buffer was added at 1 ml per well, for preincubation at 37° C. for 45 minutes. After preincubation, the supernatant was discarded, and 0.15 ml of the KRH buffer, […] at 4° C. for one hour or longer until the reaction reached equilibrium. Subsequently, the cell was washed twice using the KRH buffer. The KRH buffer was added at 2 ml per well, which was then left to stand at room temperature for 20 minutes. The cell was again washed twice by using the KRH buffer. The radioactivity remaining in each well was counted with a liquid scintillation counter to determine the binding amount.
# The difference between the binding amount of the [^3H]-labeled Compound 16 (total binding amount) under conditions with no addition of any test compound and the binding amount of the [^3H]-labeled Compound 16 (non-specific binding amount) under conditions in the presence of the Compound 16 at 10 μmol/l was defined as specific binding amount.
# According to the method described in Example 5, a substance having anti-diabetic activity was screened for, using the inhibitory activity of the binding between pancreatic β cells and [^3H]-labeled Compound 16. A tested substance was dissolved in dimethylsulfoxide and then added to give a final concentration of 1 μmol/l. The radioactivity with addition of the unlabeled Compound 16 was defined as the non-specific binding amount and the radioactivity without addition of the unlabeled Compound 16 was defined as the total binding amount, and then the individual specific binding amounts were calculated by the method described in Example 6. Using the following formula, the binding inhibition ratio was determined. [formula]
# [3] = biological target: T1, p31 protein (Mus musculus, UniProt Q99LB2); experiment: Inhibition of binding of p31 protein from MIN6 solubilized membrane fraction to Compound 155-immobilized particle (SDS-PAGE); details: 500 μmol/l tested substance, band on SDS-PAGE
# T1 construct: endogenous in cells; host or cells: MIN6 (murine pancreatic beta cell line), digitonin-solubilized membrane fraction
# T1 sequence (Q99LB2 20-279 limits assumed): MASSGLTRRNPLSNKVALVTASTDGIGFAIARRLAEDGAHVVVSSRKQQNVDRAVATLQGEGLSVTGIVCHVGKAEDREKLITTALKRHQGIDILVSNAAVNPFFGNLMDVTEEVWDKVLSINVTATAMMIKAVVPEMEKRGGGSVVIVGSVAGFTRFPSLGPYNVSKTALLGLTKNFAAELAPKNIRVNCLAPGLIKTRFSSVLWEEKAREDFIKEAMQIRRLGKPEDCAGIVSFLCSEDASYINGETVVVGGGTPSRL
# Description: The solubilized membrane fraction of MIN6 as prepared in Example 12 was 10-fold diluted with the buffer B. The compound represented by Compound No. 16 (hereinafter referred to as “Compound 16”) at 500 μmol/l was added to 1 ml of the resulting dilution and gently stirred at 4° C. for 2 hours. As a control, the solubilized membrane fraction of MIN6 without addition of the Compound 16 was 10-fold diluted with buffer C [20 mmol/l HEPES, pH 7.4, 2 mmol/l EDTA, 150 mmol/l NaCl, 1% digitonin, 1 mmol/l PMSF, 1 μg/ml aprotinin], and 1 ml of the resulting dilution was gently stirred at 4° C. for 2 hours. Then, a particle immobilizing a compound represented by Compound No. 155 (hereinafter referred to as “Compound 155-immobilized particle”) as prepared in Example 8 was added to the solubilized membrane fraction solution with addition of the Compound 16 and the solubilized membrane fraction solution without addition of any tested substance and gently stirred at 4° C. for 30 minutes. Subsequently, the resulting solutions were centrifuged (12,000 rpm, one minute, 4° C.) to precipitate the particle to thereby remove the supernatants. Then, 750 μl of the buffer C was added and stirred for 3 seconds, followed by centrifugation (12,000 rpm, one minute, 4° C.), to precipitate the particle to remove the supernatant. Then, 750 μl of buffer D [20 mmol/l HEPES, pH 7.4, 2 mmol/l EDTA] was added and stirred for 3 seconds, followed by centrifugation (12,000 rpm, one minute, 4° C.), to precipitate the particle to remove the supernatant. Subsequently, 30 μl of an SDS-polyacrylamide gel electrophoresis sample buffer containing β-mercaptoethanol was added to solubilize the protein binding to Compound 155-immobilized particle, followed by SDS-polyacrylamide gel electrophoresis. Through the purification from the cell extract solution by adding Compound 16 via Compound 155-immobilized particle, p31 protein in which its specific binding to Compound 155-immobilized particle was inhibited by the compound represented by Compound No. 16 was found. […]
compound,measurement,setting,value
"CCCN1C(=O)N2CC(Cc3ccccc3)N=C2c2[nH]c(C3CCCC3)nc21 (single isomer, unassigned) [compound 17]",Insulin secretory activity (%),[1],15.8%
same,Binding inhibitory activity (%),[2],5.4%
same,inhibition of the binding of the p31 protein to the Compound 155-immobilized particle,[3],cannot inhibit the binding of the p31 protein
